Test results reported in article PMC9686674, “Potent Anti-Inflammatory Effects of a Helix-to-Helix Peptide against Pseudomonas aeruginosa Endotoxin-Mediated Sepsis” (Antibiotics, 2022).
Ends that are not written are not given here.

Key:
[1] = system: Escherichia coli, Pseudomonas aeruginosa, Staphylococcus aureus, and Listeria monocytogenes; type: cell-based
Method: The antibacterial activity was examined using a microdilution assay with Eschrichia coli (ATCC 25922), P. aeruginosa (ATCC 15692) and Staphylococcus aureus (ATCC 25923), which were obtained from the American Type Culture Collection. Listeria monocytogenes (KCTC 3710) was obtained from the Korean Collection for Type Cultures. Cell survival was investigated using the 3-(4,5-dimethylthiazol-2-yl)-2,5-diphenyltetrazolium bromide assay in RAW264.7 cells. The assay was performed as described previously.

Balb/c mice lungs = experiment: LPS-induced acute lung injury (ALI) in mice; type: in vivo; details: 1 mg/kg intratracheal, 3 days, histology
Method: Figure 8 In vivo anti-inflammatory effects of peptides in acute lung injury. Pseudomonas aeruginosa LPS (500 ng) was intratracheally instilled in mice lungs. One hour after instillation, peptides were intratracheally administered, followed by monitoring for 3 days. Lungs collected from the euthanized mice were digitally visualized and tissues were stained using eosin/alcian blue, H&E, PE-conjugated TNF-α, and IL6 antibody. Bar is 50 µm.
P. aeruginosa LPS (500 ng) in 50 µL PBS was intratracheally instilled into seven-week-old female Balb/c mice. One hour after exposure, each peptide was intratracheally administered at the indicated dose in 50 µL PBS. Control mice were injected with 50 µL PBS without the peptides. Mice were monitored for signs of morbidity for 3 days after LPS exposure. Mice were euthanized using CO2 inhalation, and the lung tissues were excised and fixed in 4% paraformaldehyde. The fixed tissues were dehydrated using a series of ethanol solutions (50−100%) and embedded in paraffin. The tissues embedded with paraffin were sectioned with a thickness of 5 µm (Leica microtome, Deerfield, MA, USA). Histopathology of the lung tissues was performed using alcian blue and eosin and H&E staining. […] The stained tissue sections were observed under a fluorescence microscope (OPTINIT KCS3-160S; Korea Lab Tech, Seongnam, Gyeonggi-do, Republic of Korea).

RAW 264.7 cells [2] = experiment: LPS-stimulated ROS generation (H2DCFDA fluorescence microscopy); type: cell-based, murine; details: RAW 264.7, peptides 8 µM pre-incubated 30 min, P. aeruginosa LPS 100 ng/mL, 24 h
Method: Figure 3 CD spectra of peptides in LPS and effects of peptides on reactive oxygen species (ROS) production. (A) Secondary structures of WIK-10, WIR-10, WIK-14, and WIKE-14 peptides (50 µM) in 1 µg/mL Pseudomonas aeruginosa LPS. (B) RAW 264.7 cells were pre-incubated in the absence or presence of peptides (8 µM) for 30 min and treated with or without LPS (100 ng/mL). After 24 h incubation, the cells were treated using H2DCFDA and incubated for […], following which the fluorescent cells were observed under a fluorescence microscope.
RAW 264.7 cells (1 × 10^6 cells/mL) plated in a 24-well plate were pre-cultured for 24 h. Peptides in RPMI-1640 medium were then pretreated to cells for 30 min and P. aeruginosa LPS (100 ng/mL) was added, followed by additional incubation for 24 h. Control cells are not treated with peptides and LPS. H2DCFDA (10 µL, final concentration 10 µM) was treated to the cells, followed by incubation for 30 min in a CO2 incubator. The cells washed with cold-PBS buffer were then observed using a fluorescence microscope (OPTINIT KCS3-160S; Korea Lab Tech, Seongnam, Gyeonggi-do, Republic of Korea).

[3] = system: binding between LPS and RAW 264.7 cells; experiment: Inhibition of FITC-LPS binding to RAW 264.7 cells (fluorescence microscopy and flow cytometry); type: cell-based, murine; details: FITC-LPS 1 µg/mL, fluorescence microscopy, dose-dependent
Method: Figure 4 Inhibitory effects of peptides on binding between LPS and RAW 264.7 cells. Fluorescein isothiocyanate-labeled LPS and peptides were incubated for 12 h with RAW 264.7 cells, and cells were washed with PBS, followed by observation using fluorescence microscopy.
RAW 264.7 cells cultured in Roswell Park Memorial Institute Medium (RPMI)-1640 containing 10% fetal bovine serum (FBS) were aliquoted to 1 × 10^6 cells/mL in a 24-well plate, and cultured at 37 °C, 5% CO2 incubator for 24 h. Each well was treated with 1 µg/mL of FITC-attached LPS. After 1 h, peptides were added to the wells at the indicated concentrations. After incubation for 8 h, the cells were washed with cold-PBS, observed under a fluorescence microscope, and measured using flow cytometry (Beckman Coulter CytoFlex, Brea, CA, USA).

RAW 264.7 cells [4] = experiment: Nitric oxide production in LPS-stimulated RAW 264.7 cells (Griess); type: cell-based, murine; details: RAW 264.7, P. aeruginosa LPS 1 µg/mL, peptides 32 µM, 24 h, Griess reagent
Method: (§1) Figure 6 Anti-inflammatory effects of peptides in RAW 264.7 cells. (A) Secreted nitric oxide and tumor necrosis factor-α were measured from the supernatants after 24 h of LPS-stimulation with peptides (32 µM). (B) mRNA expression of RAW 264.7 cells with peptides. IL-6, interleukin-6, TNF- α, tumor necrosis factor-α; GAPDH, Glyceraldehyde 3-phosphate dehydrogenase. 1: control, 2: LPS, 3: LPS+Polymyxin B, 4: LPS+KIW-10, 5: LPS+WIK-10, 6: LPS+RIW-10, 7: LPS+WIR-10, 8: LPS+KIW-14, 9: LPS+WIK-14, 10: LPS+WIKE-14.
The murine macrophage cell RAW 264.7 was grown RPMI-1640 medium supplemented with 10% FBS and then plated at a density of 1 × 10^6 cells/mL in a 24-well microplate. After incubation for 24 h, the cells were stimulated with P. aeruginosa LPS (1 µg/mL), followed by further incubation for 1 h. Peptides were incubated for 24 h. Nitrite was measured by adding 100 µL of cell culture extract to 100 µL of Griess reagent (1% sulfanilamide and 0.1% naphthylenediamine in 5% phosphoric acid). The nitrite concentrations were calculated by comparing the absorbance of sodium nitrite standard solutions. The optical density was evaluated at 550 nm in a microplate reader (Molecular Devices, Emax, CA, USA). TNF-α levels in culture supernatants were analyzed using the R&D system TNF-α EASIA kit, Minneapolis, MN, USA). The developed color was determined by measuring the OD at 490 nm in a microplate reader.

RAW 264.7 cells [5] = experiment: Cytokine mRNA (IL-6, TNF-α) in LPS-stimulated RAW 264.7 cells (RT-PCR); type: cell-based, murine; details: RAW 264.7, LPS 1 μg/mL, 32 μM peptide, 8 h, compared to only LPS-treated cells
Method: as §1
RAW 264.7 cells were cultured in RPMI-1640 medium containing 10% FBS, and then seeded to 5 × 10^6 cells/mL in a 6-well plate and cultured at 37 °C, 5% CO2 incubator for 24 h. Each well was treated with 1 μg/mL of LPS; after 1 h, 32 μM of each peptide was added and incubated for 8 h. Cells were collected, and total RNA was isolated using TRIzol reagent (Thermo Fisher Scientific, Waltham, MA, USA). 5′-[…]-3′ and 5′-[…]-3′ as Glyceraldehyde 3-phosphate dehydrogenase primers, 5′-[…]-3′ and 5′-[…]-3′ as IL-6 primers, and 5′-[…]-3′ and 5′-[…]-3′ as TNF-α primers were used for reverse transcription-polymerase chain reaction (RT-PCR). The PCR products generated using the Maxime RT-PCR premix kit (IntronBio, Seongnam, Gyeonggi-do, Republic of Korea) were confirmed using electrophoresis.

Substance | GM, geometric mean of minimum inhibitory concentration values [1] | other results
KKIIKKIIKKIWKW-NH2 [KIW-14] | 2.6 ± 1.2 µM | 
KKIIKKIWKW-NH2 [KIW-10] | 11 ± 1 µM | 
KKIWKKWIKI-NH2 [KWI-10] | 10.5 ± 1.2 µM | 
KKIWKKWIKKIIKI-NH2 [KWI-14] | 2.6 ± 0.8 µM | 
RRIIRRIWRW-NH2 [RIW-10] | 8.5 ± 0.8 µM | 
RRIWRRWIRI-NH2 [RWI-10] | 7 ± 1.2 µM | 
WIKKIWKKIIKEIK-NH2 [WIKE-14] | 8 ± 0.8 µM | toxicity in lung tissue cells, peptide alone (Balb/c mice lungs): non-toxic
WIKKIWKKIIKKIK-NH2 [WIK-14] | 2.1 ± 0.4 µM | toxicity in lung tissue cells, peptide alone (Balb/c mice lungs): toxic
WIKKIWKKIK-NH2 [WIK-10] | 6.5 ± 0.8 µM | 
WIRRIWRRIR-NH2 [WIR-10] | 3 ± 0.2 µM | 
melittin |  | ROS-producing level of LPS-treated cells (RAW 264.7 cells [2]): significantly reduced
polymyxin B |  | ROS-producing level of LPS-treated cells (RAW 264.7 cells [2]): significantly reduced; FITC fluorescence signals in RAW 264.7 cells (FITC-LPS binding) [3]: dramatically decreased; LPS-induced NO secretion (RAW 264.7 cells [4]): inhibited; expression levels of IL-6 and TNF-α (mRNA) (RAW 264.7 cells [5]): clearly decreased
